Measured values: US10220046B2, “Compositions and methods for disease treatment using nanoparticle delivered compounds” (THE REGENTS OF THE UNIVERSITY OF MICHIGAN, priority 2014, dated 2019)
Non-standard residues stand in square brackets, D forms with d. No end group written: not given here.

Experiments:
[1] = sHDL nanoparticle formation and loading with additional anticancer agents; type: physicochemical; conditions: agent in place of WGA-TA
From the text: The composition as described in Example was made with various anticancer agents in place of WGA-TA.

[2] = Metabolite analysis in mouse plasma by LC-MS/MS; type: in vivo, CD-1 white mice; conditions: IV 4 mg/kg WGA-TA in dextran formulation, 30 minutes after administration
Description: CD-1 white mice were given an IV dosage of 4 mg/kg WGA-TA in dextran formulation. Samples of blood was collected at different time points in heparin treated tubes and the plasma collected after centrifugation at 13,000 rpm for 10 min and was frozen at −80° C. for later analysis. For the evaluation of metabolites, 300 uL of ice-cold acetonitrile was added to 100 uL of the mouse plasma and then centrifuged at 4° C. in 15000 rpm for 10 minutes. The top supernatant was dried under a stream of nitrogen gas. The residue was finally reconstituted in a 100 uL solution of 20% acetonitrile (80% water). Blank plasma needed for the control was prepared from untreated CD-1 white mice blood as above. As a negative control, blank plasma spiked with WGA-TA before extraction was used. The LC-MS/MS analysis was conducted using a Shimadzu HPLC system coupled with an API 4500 mass spectrometer (Applied Biosystems, MDS Sciex Toronto, Canada), equipped with an API electrospray ionization (ESI) source. Enhanced MS, product ion-scan, and MRM scan were used as a survey scan to identify metabolites of WGA-TA. Information dependent acquisition (IDA) was used to collect fragmentation of metabolite candidates or single experiment of enhanced product ion scan was applied to acquire fragmentation of metabolites after running survey scan. […]

NCI-H295R MCAs = test: Three dimensional multicellular aggregate (MCA) treatment; type: cell-based, human; conditions: in combination with 50 μg/ml sHDL, 24 h
From the text: (§1) To evaluate the translational potential of the combination therapy, three-dimensional multicellular aggregates were developed to mimic the in vivo tumor model as described by Jain et al. (Jain et al., Endocrine-related cancer. 2013 June; 20(3):361-70, herein incorporated by reference in its entirety). […] Untreated, sHDL alone treated cells served as controls. The MCAs were photographed before and after treatment and the MCAs were quantified by Image J software (NIH) as described by Jain et al.

SW13 MCAs = test: as above; type: cell-based, human; conditions: in combination with 50 μg/ml sHDL, 24 h
From the text: as §1

[3] = tested on: cortisol production of NCI-H295R cells; test: Cortisol immunoassay of culture supernatant; type: cell-based, human; conditions: 24 h
Description: The cortisol immunoassay (Alpco, Salem, N.H.) was used to quantitate cortisol levels in the culture supernatant of steroid producing NCI-H295R cells after treatment with drug combinations (same as in clonogic assay) for 24 h per the manufacturer instructions. Briefly, culture supernatant after treatment was added to the antibody coated-plates containing assay buffer (45 minutes at 25° C.). After washing, tetra methyl benzidine (TMB) substrate was incubated at RT and absorbance measured using a Synergy Neo reader (BioTek, Winooski, Vt.).

SW13 cells [4] = test: Mitochondrial membrane potential (TMRE); type: cell-based, human; conditions: combination with sHDL vs. drug alone, 24 h
Description: (§2) SW13 and NCI-H295R were seeded in a 96 well black wall plate. Once attached, they were treated with the drugs as described above. 24 h post drug treatment, 500 nM tetramethylrhodamine, ethyl ester (TMRE) was added and the cells were incubated for 20 minutes at 37° C. and the fluorescent signal was measured after washing using a microplate reader (excitation=549, emission=575). 100 nM FCCP (carbonyl cyanide 4-(trifluoromethoxy)phenylhydrazone) was added to cells 10 minutes before the addition of TMRE as a negative control.

NCI-H295R cells [5] = test: Mitochondrial membrane potential (TMRE); type: cell-based, human; conditions: combination with sHDL vs. drug alone, 24 h
Description: as §2

[6] = tested on: genes involved in steroidogenesis in NCI-H295R cells; test: Real time RT-PCR of genes involved in steroidogenesis; type: cell-based, human; conditions: combination with sHDL compared to monotherapy, 24 h; decreased for P and M, increased for E
Description: RNA from the NCI-H295R cells after drug treatment for 24 h was prepared using Qiagen RNA isolation kit (Qiagen Sciences, Valencia, Calif.). Approximately 500 ng of RNA was reverse transcribed using superscript RT kit from Life Technologies (Grand Island, N.Y.). qPCR was performed in a step-one RT PCR machine using the gene specific primer sets (Table 3) as published (11). Relative gene expression levels were calculated after normalization with internal control.

SW13 cells [7] = test: Apoptosis by flow cytometry (annexin V-FITC/propidium iodide); type: cell-based, human; conditions: combined with sHDL vs. drug alone, 24 h
Description: (§3) Following treatment, cells were washed, re-suspended in annexin binding buffer and stained using annexin V-FITC/Propidium iodide as previously described (Subramanian et al., World J. Surg., 2014, 38(6): 1343-52). Induction of apoptosis was measured using the CyAn ADP Analyzer (Beckman Coulter, Inc., Indianapolis, Ind.).

NCI-H295R cells [8] = test: as above; type: cell-based, human; conditions: combination with sHDL vs. drug alone, 24 h
Description: as §3

SW13 and NCI-H295R cells = test: Cell viability assay (CellTiter-Glo) and combination index; type: cell-based, human
Description: Serial dilutions were made from the starting concentrations and viability of cells was then measured based on quantification of the ATP levels after treatment with CellTiter-Glo luminescent assay reagent as per the manufacturer's instruction (Promega, Madison, Wis.) with luminescence quantified using a BioTek Synergy Neo plate reader (BioTek, Winooski, Vt.). […] For all cell-based experiments, the experimental control group was defined, unless stated otherwise, as untreated cells or cells treated with single drug alone (when comparing to combination regimens).

SW13 cells [9] = test: Colony formation assay; type: cell-based, human; conditions: clonogenic assay, 24 h treatment, with 50 μg/ml sHDL
Description: (§4) NCI-H295R and SW13 cells were plated in 6-well plates and allowed to attach. […] The medium was changed and surviving cells allowed to grow colonies of 50 cells or more for two weeks, then washed, fixed, and stained with coomassie blue and counted. Total colony numbers were normalized to untreated controls.

NCI-H295R cells [10] = test: Colony formation assay; type: cell-based, human; conditions: clonogenic assay, 24 h treatment, with 50 μg/ml sHDL
Description: as §4

[11] = tested on: adrenocortical carcinoma (ACC); conditions: advanced ACC patients; cited from earlier work
LCAT = biological target: T1, LCAT (Homo sapiens, UniProt P04180); conditions: cited from earlier work
T1 sequence (P04180 25-440): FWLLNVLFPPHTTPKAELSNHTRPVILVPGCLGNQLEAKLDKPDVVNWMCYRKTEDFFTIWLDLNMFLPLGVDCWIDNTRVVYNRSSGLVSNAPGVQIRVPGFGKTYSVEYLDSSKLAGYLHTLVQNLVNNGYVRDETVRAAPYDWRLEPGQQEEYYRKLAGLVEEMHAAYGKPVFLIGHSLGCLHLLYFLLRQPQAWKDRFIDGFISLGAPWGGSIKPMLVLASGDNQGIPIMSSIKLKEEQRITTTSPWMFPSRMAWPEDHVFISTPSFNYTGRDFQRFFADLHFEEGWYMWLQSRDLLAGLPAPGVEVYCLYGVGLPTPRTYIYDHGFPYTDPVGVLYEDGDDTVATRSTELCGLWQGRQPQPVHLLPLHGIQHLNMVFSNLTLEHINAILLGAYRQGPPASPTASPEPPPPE

## CC[C@@]1(O)C(=O)OCc2c1cc1n(c2=O)Cc2cc3cc(O)ccc3nc2-1 [10-hydroxy camptothecin]
[1]
  nanoparticle formation and loading in sHDL: Successful nanoparticle formation and loading

## O=NN(CCCl)C(=O)NC1CCCCC1 [CCNU, lomustine]
[1]
  nanoparticle formation and loading in sHDL: Successful nanoparticle formation and loading

## CC(=O)OCC1=C(C)C[C@H]([C@@H](C)C2CC[C@H]3[C@@H]4C[C@H]5O[C@]56[C@@H](OC(C)=O)C=CC(=O)[C@]6(COC(C)=O)[C@H]4CC[C@]23C)OC1=O (stereo partly shown) [WGA-TA, 4, 19, 27-triacetyl withalongolide A]
[2]
  metabolic identification in plasma: three deacetylation products

## N.N.[Cl][Pt][Cl] [cisplatin]
NCI-H295R MCAs
  reduction in MCAs: Approximately 20%
SW13 MCAs
  reduction in MCAs: approximately 50%
[3]; drug alone vs. controls
  decrease of cortisol production levels: 8.39%
[3]; in combination with sHDL
  decrease of cortisol production levels: 82%
SW13 cells [4]
  reduction in mitochondrial potential ΔΨ: 6.5%
NCI-H295R cells [5]
  reduction in mitochondrial potential ΔΨ: 13.09%
[6]
  HSD3B2 level: 0.1 fold change
SW13 cells [7]
  increase of necrotic cell death: 14.71%
NCI-H295R cells [8]
  increase in the percentage of apoptotic cells (early and late): 6.16%

## CC(=O)O[C@@]12CO[C@@H]1C[C@H](O)[C@@]1(C)C(=O)[C@H](O)C3=C(C)[C@@H](OC(=O)[C@H](O)[C@@H](NC(=O)OC(C)(C)C)c4ccccc4)C[C@@](O)([C@@H](OC(=O)c4ccccc4)[C@H]21)C3(C)C [docetaxel]
[1]
  nanoparticle formation and loading in sHDL: Successful nanoparticle formation and loading

## COc1cccc2c1C(=O)c1c(O)c3c(c(O)c1C2=O)C[C@@](O)(C(=O)CO)C[C@@H]3O[C@H]1C[C@H](N)[C@H](O)[C@H](C)O1 [doxorubicin]
SW13 and NCI-H295R cells; combined with sHDL nanoparticles (25 and 50 μg/ml), Chou-Talalay, 72 h
  combination index (CI): > 1

## COc1cc([C@@H]2c3cc4c(cc3[C@@H](O[C@@H]3O[C@@H]5CO[C@@H](C)O[C@H]5[C@H](O)[C@H]3O)[C@H]3COC(=O)[C@H]23)OCO4)cc(OC)c1O [etoposide]
SW13 cells [9]
  higher reduction in viability, combination compared to single drug alone: 39.52%
NCI-H295R cells [10]
  higher reduction in viability, combination compared to single drug alone: 44.6%
NCI-H295R MCAs
  reduction in MCAs: approximately 50%
SW13 MCAs
  reduction in MCAs: ~25%
[3]; drug alone vs. controls
  decrease of cortisol production levels: 82.1%
[3]; in combination with sHDL
  decrease of cortisol production levels: not significantly different
SW13 cells [4]
  reduction in mitochondrial potential ΔΨ: 31.54%
NCI-H295R cells [5]
  reduction in mitochondrial potential ΔΨ: 9.2%
[6]
  HSD3B2 level: 2.1 fold change
SW13 cells [7]
  increase of necrotic cell death: 21.33%
NCI-H295R cells [8]
  increase in the percentage of apoptotic cells (early and late): 36.46%

## Clc1ccc(C(c2ccccc2Cl)C(Cl)Cl)cc1 (stereo not shown) [mitotane]
SW13 cells [9]
  higher reduction in viability, combination compared to single drug alone: 22.3%
NCI-H295R cells [10]
  higher reduction in viability, combination compared to single drug alone: 39.1%
NCI-H295R MCAs
  reduction in MCAs: ~30%
SW13 MCAs
  reduction in MCAs: approximately 50%
[3]; drug alone vs. controls
  decrease of cortisol production levels: 84.7%
[3]; in combination with sHDL
  decrease of cortisol production levels: not significantly different
[11]
  improvement in survival rate: 14-50 months
  initial response rates: 20-30%
SW13 cells [4]
  reduction in mitochondrial potential ΔΨ: 19.8%
NCI-H295R cells [5]
  reduction in mitochondrial potential ΔΨ: 14.49%
SW13 and NCI-H295R cells; SW13 cells compared to NCI-H295R cells
  IC50 value: higher IC50 value
[6]
  HSD3B2 level: 0.2 fold change
SW13 cells [7]
  increase of apoptotic cell death: 11.9%
NCI-H295R cells [8]
  increase in the percentage of apoptotic cells (early and late): 36.01%

## CC(=O)O[C@H]1C(=O)[C@@]2(C)[C@H]([C@H](OC(=O)c3ccccc3)[C@]3(O)C[C@H](OC(=O)[C@H](O)[C@@H](NC(=O)c4ccccc4)c4ccccc4)C(C)=C1C3(C)C)[C@]1(OC(C)=O)CO[C@@H]1C[C@@H]2O [paclitaxel]
[1]
  nanoparticle formation and loading in sHDL: Successful nanoparticle formation and loading

## Ac-PVLDEFREKLNEELEALKQKLK-NH2 [consensus 22-mer]
LCAT
  LCAT activation as compared with native ApoA-I: 10%

## PVLELFENLLERLLDALQKKLK (listed as Homo sapiens) [SEQ ID NO:2, ApoA-I agonist peptide]
LCAT
  LCAT activation as compared with native ApoA-I: 86%

## pVLELFENLLERLLDALQKKLK ([dP]VLELFENLLERLLDALQKKLK) [SEQ ID NO:3, ApoA-I agonist peptide with D-Pro at X1]
LCAT
  LCAT activation as compared with native ApoA-I: 111%
